Like-named read-outs stand apart in the source and are kept apart here.
Tests used:
[1] = target: T1, TSPO (Rattus norvegicus, UniProt P16257); test: [3H]PK11195 binding displacement assay, rat kidney membranes; conditions: read-out: Equilibrium Ki
T1 construct: Membranes from rat kidneys were prepared as described previously; from tissue; host or cells: rat kidney membranes
Procedure: (§1) Membranes from rat kidneys were prepared as described previously. All the experimental procedures were carried out following the guidelines of the European Community Council Directive 86–609 and have been approved by the Committee for animal experimentation of the University of Pisa. The resulting membrane pellets were aliquoted and frozen at –20 °C. For all radioligand binding assays, an aliquot of membranes was thawed, suspended in assay buffer (AB, Tris-HCl 50 mM, pH 7.4) and homogenized using Ultraturrax. In cell membrane homogenate, protein content was measured by the Bradford method[52] using the Bio-Rad Protein Assay reagent.
(§2) All experiments were analyzed by either linear or non linear regression using Prism 5.0 (GraphPad Software Inc., San Diego, CA). […] Competition displacement binding were fitted to sigmoidal (variable slope) curves.

[2] = target: T1, TSPO; test: Simplified (one-concentration) competition kinetic association assay; format: binding; conditions: for dissociation rate of the ligand from TSPO (rapid or slow competitor of [3H]PK11195): shape of [3H]PK11195 association curve, ligand at three-fold Ki; for koff / kon / Kd: unlabeled ligand at three-fold Ki only; for Kd: read-out: Kinetically-derived Kd = Koff/Kon
Procedure: The unlabeled TSPO ligand kinetic parameters were assessed using the theoretical model of Motulsky and Mahan[32]. Unlike methods in which one compound is pre-equilibrated with the receptor, this approach involves the simultaneous addition of both radioligand and competitor to receptor preparation, so that at t = 0 all receptors are unoccupied. […] The degree of bound to TSPO was assessed at multiple time points by filtration harvesting and liquid scintillation counting, as above described. […] For ‘simplified’ competition kinetic association assays, the experiments were performed using concentration of unlabeled TSPO ligands corresponding to three-fold their Ki.
Association and dissociation rates for unlabeled TSPO ligands were calculated by fitting the data in the competition association model using the ‘kinetics of competitive binding’ assay, defining the amount of radioligand bound to receptor ([RL]) as a function of time[32]: […]

[3] = system: rat C6 glioma cells; test: Pregnenolone production in C6 glioma cells (ELISA); format: cell-based; conditions: for Emax at 100 µM / EC50: Rattus norvegicus, 2 h; for Emax at 100 µM: read-out: Emax (at 100 μM) (vehicle set to 100%); for EC50: read-out: EC50 (pregnenolone production); for steroidogenic efficacy, ranking in words: among all tested TSPO ligands
[4] = system: rat; conditions: cited from earlier work; for anxiolytic activity in EPM test: rat
[5] = system: neurosteroid synthesis; set-up: method as in PMID 25654303; conditions: relative to XBD173; cited from earlier work
[6] = system: TSPO; set-up: method as in PMID 25654303; conditions: relative to XBD173; cited from earlier work
[7] = target: T1, TSPO; test: [3H]PK11195 binding saturation assay, rat kidney membranes; conditions: [3H]PK11195 saturation binding
Procedure: as §1, §2

[8] = system: human glial cell model; set-up: method as in PMID 20728278; conditions: cited from earlier work
[9] = system: GABAA receptor; set-up: method as in PMID 20728278; conditions: conditioned medium of treated glial cells; cited from earlier work
[10] = displacement of 1 nM [3H]PK11195, rat kidney membranes, 0 °C
[11] = pregnenolone production at 100 μM ligand, C6 cells
[12] = C6 cells, 0-100 μM ligand, serum-free

Compound | Ki [1, 10] [nM] | dissociation rate of the ligand from TSPO (rapid or slow competitor of [3H]PK11195) [2] | koff [2] [s⁻¹] | kon [2] [M⁻¹ s⁻¹] | Kd [2] [nM] | Emax at 100 µM [3, 11] [%] | EC50 [3, 12] [nM] | Ki [1] [nM] | other results
CCCN(CCC)C(=O)C(=O)c1c(-c2ccc3ccccc3c2)[nH]c2ccccc12 [PIGA1128] | 0.31 ± 0.02 | slow | 0.0003 | 1.35e+06 | 0.22 ± 0.05 | 179 ± 7 | 26100 ± 1500 | – | –
CN1C(=O)CN=C(c2ccc(Cl)cc2)c2cc(Cl)ccc21 [Ro5-4864, reference compound] | – | rapid | – | – | – | – | – | – | EC50 [3]: 36200 ± 2500 nM; Emax at 100 µM [3]: 150 ± 4%; anxiolytic effect in EPM test [4]: does not determine anxiolytic effect
CCN(Cc1ccccc1)C(=O)C(=O)c1c(-c2ccc(Cl)cc2)[nH]c2ccc(Cl)cc12 [PIGA823] | 3.3 ± 0.31 | slow | – | – | 1.86 ± 0.17 | 272 ± 11 | 12200 ± 1300 | – | steroidogenic efficacy, ranking in words ([3]; C6 cells): highest efficacy; anxiolytic activity in EPM test [4]: significant anxiolytic activity
CCNC1=Nc2ccc(Cl)cc2C(C)(c2ccccc2)O1 (stereo not shown) [Etifoxine] | – | – | – | – | – | – | – | – | potency to stimulate neurosteroidogenesis compared with XBD173 [5]: more potent; binding affinity to TSPO, fold lower than XBD173 [6]: approximately 140 fold
CCCCCCN(CCCCCC)C(=O)C(=O)c1c(-c2ccc(C(=O)O)cc2)[nH]c2ccccc12 [PIGA1214] | – | rapid | – | – | 332 ± 15 | 141 ± 4 | 92000 ± 5600 | 343 ± 15.9 | –
CCC(C)N(C)C(=O)c1cc2ccccc2c(-c2ccccc2Cl)n1 (stereo not shown) [PK11195, reference compound] | – | – | – | – | – | 153 ± 4 | – | – | Bmax [7]: 6498 ± 500 fmol/mg of proteins; EC50 [3]: 19500 ± 1800 nM; anxiolytic effect in EPM test [4]: does not determine anxiolytic effect
CCCCCCN(CCCCCC)C(=O)C(=O)c1c(-c2ccccc2)[nH]c2ccc([N+](=O)[O-])cc12 [PIGA925] | – | rapid | 0.00113 | 113000 | 10 ± 1.13 | 166 ± 5 | 9710 ± 1000 | 12.2 ± 3.14 | –
CCCN(CCC)C(=O)C(=O)c1c(-c2ccccc2)[nH]c2ccccc12 [PIGA719] | 12.2 ± 1.1 | rapid | – | – | 11.9 ± 1 | 146 ± 2 | 12900 ± 1500 | – | –
CCCCCN(C)C(=O)C(=O)c1c(-c2ccc3ccccc3c2)[nH]c2ccccc12 [PIGA1138] | – | slow | 0.000117 | 717000 | 0.17 ± 0.03 | 275 ± 5 | 13100 ± 1400 | 0.34 ± 0.03 | steroidogenic efficacy, ranking in words ([3]; C6 cells): highest efficacy
CCCN(CCC)C(=O)C(=O)c1c(-c2ccc(C)cc2)[nH]c2ccccc12 [PIGA839] | 5.5 ± 0.47 | slow | 0.00015 | 28200 | 5.45 ± 0.6 | 254 ± 5 | 16300 ± 1400 | – | allopregnanolone in medium of treated cells [8]: high levels; 36Cl- uptake into cerebral cortical synaptoneurosomes [9]: potentiated; steroidogenic efficacy, ranking in words ([3]; C6 cells): highest efficacy; anxiolytic activity in EPM test [4]: significant anxiolytic activity
CCCCCCN(CCCCCC)C(=O)C(=O)c1c(-c2ccccc2)[nH]c2ccccc12 [PIGA720] | 1.4 ± 0.28 | rapid | – | – | 1.79 ± 0.24 | 144 ± 4 | 29700 ± 3100 | – | –
CCCCCCN(CCCCCC)C(=O)C(=O)c1c(-c2ccccc2)[nH]c2ccc(Cl)cc12 [PIGA745] | – | rapid | 0.000967 | 64000 | 15.1 ± 1.16 | 140 ± 5 | 34600 ± 3600 | 13.1 ± 1.16 | –
CCCCN(CCCC)C(=O)C(=O)c1c(-c2ccc(Cl)cc2)[nH]c2ccc(Cl)cc12 [PIGA835] | – | rapid | 0.000967 | 963000 | 1 ± 0.19 | 149 ± 4 | 25600 ± 2300 | 0.91 ± 0.11 | –
